Test results as given in patent US7442706B2, “Methods for treating sarcopenia with a growth hormone secretagogue” (priority 2006, dated 2008).
Marks after values point to notes of the source that are not given here.

Assays:
Assay type in all cases: in vivo, human
[1] = Isokinetic muscle strength (Cybex II), knee and shoulder flexion and extension; conditions: 12 months
Description: Isokinetic Muscle Strength. Concentric force during flexion and extension of the knee and shoulder were determined using an isokinetic dynamometer Cybex II (CSM, Inc., Boston, Mass.). (11) Six repetitions of maximal effort over 90 degrees at 60 degrees/second were performed with the mean of the last 5 repetitions computed by proprietary software. Total work (Newton metres) was calculated by multiplying the mean per repetition by 5. Correction for Height and Gender. All strength and function measurements were analyzed per kg of skeletal muscle (ASM). Baseline arm ASM and leg ASM were used for shoulder and knee strength, respectively; baseline TASM (sum of arms and legs) was used for the function tests.

[2] = Body composition: body weight, FFM, fat mass, ASM (4-compartment model, DXA), AVF and thigh muscle (CT); conditions: for Mean Change in FFM from Baseline, 4-C / Mean Change in FFM from Baseline, DXA: n = 43
Description: This example presents the 6 and 12 mo (pivotal) body composition data in all subjects studied in a 2-yr crossover study. A total of 65 healthy older [60-81 yr; BMI 26.1±3 (19-35) kg/m^2] men and women on and off HRT (hormone replacement therapy) received MK-677 (⅔ of each group) or placebo in Yr 1. Total body fat mass, % fat, and fat-free mass (FFM) were determined every 6 mo over 2 yr using a 4-compartment (4-C) model, as well as dual energy x-ray absorptiometry (DXA, QDR 2000). 4-C model components: body weight and density (BodPod); total body water (D2O dilution); total bone mineral content (DXA). Data were analyzed by way of repeated measure ANCOVA with baseline response as the model covariate. P values and confidence limits were derived based on a Bonferroni two-sided experiment wise error rate 0.05; data shown are mean (upper and lower Bonferroni 95% CL).
Sixty-five healthy men and women (±HRT) ages 60-81 years were enrolled in a 2-year study of MK-677 (25 mg p.o. daily) or placebo. In addition to GH and IGF-I, the primary endpoints were fat-free mass (FFM), by 4-compartment model and DXA, and abdominal visceral fat (AVF) by CT. Secondary endpoints included isokinetic strength, function and quality of life (QoL); all endpoints were assessed at baseline and every 6 months, with frequent monitoring for adverse effects.
This NIH-funded study was approved by the General Clinical Research Center (GCRC) and the University of Virginia Institutional Review Boards. All subjects gave written informed consent. A two-year, double-blind, placebo-controlled modified crossover trial of once-daily administration of an oral GH secretogogue (MK-677, 25 mg) to healthy older adults was performed.
During the first year, subjects were randomized to MK-677 or placebo treatment. In each of 3 groups (23 men, 25 women on hormone replacement therapy (HRT) and 17 women not on HRT), ⅔ received MK-677 and ⅓ received placebo. At the end of year 1, the subjects who received placebo were switched to MK-677 treatment (N= 2/0 in year 2); subjects who received MK-677 for the first year were randomized to continue MK-677 (N=20) or to placebo (N=19).
Body Composition. The effects of treatment on FFM and total body fat were evaluated by two independent methods: a 4-compartment (4-C) model (5); and dual x-ray absorptiometry (DXA). All subjects were scanned on the same Hologic QDR-2000 in pencil beam mode as previously described (6); all scans were read by a single observer (J. L. C.). Total appendicular skeletal muscle (lean) mass (TASM) from DXA was measured as the sum of the lean soft-tissue masses for the arms and the legs as described by Heymsfield et al. (7). Total and abdominal visceral fat (AVF), and subcutaneous fat areas (cm^2), as well as thigh muscle were measured by computed tomography (CT) ((8) and all scans were read by a single observer (J. L. C.)
The two primary endpoints for this study are: 1) FFM, which is an important determinant of functional ability; and 2) AVF, which is the most important fat depot for cardiovascular risk. Based on a sample size of 60 subjects (40 randomized to MK-677 and 20 to placebo in year 1), this cross-over study was designed to have at least 90% power to detect a 4.1% or greater between-group difference in the change in percent FFM, with the same power to detect a 12.6% or greater between-group difference in the change in AVF (cm^2) after the initial 12-months of treatment. The sample size formula for two-sample Student's t-test was used to conduct the power analysis. The standard deviations used in the power calculations were 4.4% for percent FFM and 14.1% for AVF. Both power calculations reflect the power of a two-sided test with a type I error rate of 0.05.
The primary outcome data for the 6- and 12-month changes in FFM and AVF as well as for IGF-I and GH were analyzed via repeated measures ANCOVA. […]

[3] = Body water (TBW by deuterium dilution, ECW by bromide dilution, ICW by difference); conditions: 12 months; expressed per kg FFM
Description: Body Water. Total body water (TBW) was measured using the deuterium oxide (D2O) dilution technique ((8) and extracellular water (ECW) by bromide dilution (10). Intracellular water (ICW) was assessed as the difference between TBW and ECW. To determine the relative relationships of total-, extra- and intra-cellular water, each component (in kg) was expressed per kg of FFM at each time point.

[4] = 6 mo, 25 mg p.o. daily, mean (Bonferroni 95% CL)
[5] = 12 mo, 25 mg p.o. daily, methanesulfonate

CC(C)(N)C(=O)N[C@H](COCc1ccccc1)C(=O)N1CCC2(CC1)CN(S(C)(=O)=O)c1ccccc12.CS(=O)(=O)O [MK-677, N-[1(R)-[(1,2-dihydro-1-methanesulfonylspiro[3H-indole-3,4′-piperidin]-1′-yl)carbonyl]-2-(phenylmethyloxy)ethyl]-2-amino-2-methylpropanamide methanesulfonate]
shoulder flexion total work vs. placebo [1]: trend for prevention of this decline
total work in knee extension or flexion or in shoulder extension, between groups [1]: no change
increase in appendicular skeletal muscle compared to placebo ([2]; 25 mg orally daily, over the first year): 1.6 kg
Total ASM change from baseline and vs. placebo ([2]; 6 and 12 months, DXA): significantly increased
Estimated Difference in Change (MK-677 vs Placebo), Body Wt ([2]; 6 mo, 25 mg p.o. daily): 2.3 (0.8-3.8)*** kg
Estimated Difference in Change (MK-677 vs Placebo), FFM, 4-C ([2]; 6 mo, 25 mg p.o. daily): 1.28 (0.21-2.36)* kg
Estimated Difference in Change (MK-677 vs Placebo), FFM, DXA ([2]; 6 mo, 25 mg p.o. daily): 1.15 (0.28-2.02)** kg
Mean Change in FFM from Baseline, 4-C [2, 4]: 1.12 (0.48-1.75) kg
Mean Change in FFM from Baseline, DXA [2, 4]: 0.98 (0.47-1.48) kg
Total body weight increase ([2]; 6 months, 25 mg p.o. daily, placebo 0.7 kg): 3.1 kg
Estimated Difference in Change (MK-677 vs Placebo), Body Wt ([2]; 12 mo, 25 mg p.o. daily): 1.9 (0.5-3.4)** kg
Estimated Difference in Change (MK-677 vs Placebo), FFM, 4-C ([2]; 12 mo, 25 mg p.o. daily): 1.64 (0.56-2.71)** kg
Estimated Difference in Change (MK-677 vs Placebo), FFM, DXA ([2]; 12 mo, 25 mg p.o. daily): 1.54 (0.67-2.41)*** kg
Mean Change in FFM from Baseline, 4-C [2, 5]: 1.27 (0.64-1.90) kg
Mean Change in FFM from Baseline, DXA [2, 5]: 1.09 (0.58-1.59) kg
increase in thigh muscle area measured by CT vs. placebo ([2]; 12 months): did not reach statistical significance
Total body weight increase ([2]; 12 months, 25 mg p.o. daily, placebo 0.8): 2.7 kg
total body fat increase from baseline, DXA ([2]; 12 months, 25 mg p.o. daily, placebo 1.1 kg): 1.8 kg
mean AVF increase from baseline, CT ([2]; 12 months, 25 mg p.o. daily, placebo 4.2 cm^2): 8.4 cm^2
Subcutaneous fat change from baseline ([2]; 12 months, CT): significantly increased from baseline
leg ASM change vs. baseline ([2]; 12 months, DXA): increased significantly
total body fat, difference between MK-677 and placebo groups ([2]; 12 months, DXA): no significant difference between groups
increase in FFM of the first year, in subjects treated for 2 yr ([2]; Yr 2, n=17, descriptive data): maintained
increase in FFM in subjects switched from MK-677 to placebo ([2]; yr 2, descriptive data): lost
changes in TBW, ECW or ICW vs. placebo [3]: no significant changes
